Data on one compound can be found in US11890288B2, “Sulfonamide or sulfinamide compound having effect of inducing BRD4 protein degradation and pharmaceutical use thereof” (MITSUBISHI TANABE PHARMA CORPORATION, priority 2020, dated 2024).

The subject of test [1] is human acute myeloid leukemia MV-4-11 cell. Nature of the test: Cytotoxic action on MV-4-11 cells (WST-8, 96 hr). In kind it is cell-based. To be noted: MV4-11, MV-4-11, 96 hr. Here is the method:
(§1) The cytotoxic action of the compound of the present invention against human cancer cells was evaluated in vitro. In this experiment, (+)-JQ1 (Nature volume 468, pages 1067-1073 (23 Dec. 2010)) known to have an inhibitory activity on the binding of BRD4 protein and a ligand therefor was used as a positive control drug. Respective cells were suspended in 10% FBS/RPMI1640, seeded in a 96 well plate and cultured at 5% CO2, 37° C. overnight. A test compound dissolved in DMSO was diluted with 10% FBS/RPMI1640 and added and the cells were further cultured for 96 hr. After culturing, the viable cell number was measured using a cell number measurement WST-8 kit (Kishida Chemical Co., Ltd.). As a control, the measurement was performed under conditions free of the test compound. The cytotoxic activity of the compound of the present invention against human prostate cancer LNCaP cells is shown in IC50 value in Table 1. The IC50 value is a concentration of the compound showing 50% cell survival rate when the cell survival rate thereof under compound untreated condition is 100%. It was calculated from the straight line connecting the cell survival rate at two points enclosing the 50% cell survival rate and the compound concentration. […]

The subject of test [2] is human stomach cancer SNU-16 cell. Nature of the test: Cytotoxic action on SNU-16 cells (WST-8, 96 hr). The class given is cell-based. The conditions noted are these: SNU-16, 96 hr. The method, then:
as §1

The subject of test [3] is human uterus cervix cancer HeLa cell. Kind of test: Cytotoxic action on HeLa cells (WST-8, 96 hr). In kind it is cell-based. The method, then:
as §1

Test [4] has as its system human large cell lung cancer NCI-H460 cell. Nature of the test: Cytotoxic action on NCI-H460 cells (WST-8, 96 hr). The class given is cell-based. The conditions noted are these: NCI-H460, 96 hr. The method, then: as §1
The subject of test [5] is human EGFRT790M mutation-positive non-small cell lung cancer NCI-H1975 cell. Kind of test: Cytotoxic action on NCI-H1975 cells (WST-8, 96 hr). The class given is cell-based. The conditions noted are these: NCI-H1975, 96 hr. The method, then: as §1
Test [6] has as its system human renal cell cancer 786-O cell. Kind of test: Cytotoxic action on 786-O cells (WST-8, 96 hr). In kind it is cell-based. The conditions noted are these: 786-O (printed 786-0). Here is the method: as §1
For test [7], the system named is human breast cancer ZR-75-1 cell. Kind of test: Cytotoxic action on ZR-75-1 cells (WST-8, 96 hr). To be noted: ZR-75-1, 96 hr. In kind it is cell-based. Here is the method:
as §1

Test [8] deals with human small cell lung cancer NCI-H82 cell. Kind of test: Cytotoxic action on NCI-H82 cells (WST-8, 96 hr). To be noted: NCI-H82, 96 hr. In kind it is cell-based. The method, then: as §1
The subject of test [9] is human triple negative breast cancer MDA-MB-231 cell. Kind of test: Cytotoxic action on MDA-MB-231 cells (WST-8, 96 hr). The class given is cell-based. The conditions noted are these: MDA-MB-231, 96 hr. The method, then: as §1
Test [10] concerns human Burkitt lymphoma Raji cell. Kind of test: Cytotoxic action on Raji cells (WST-8, 96 hr). In kind it is cell-based. The method, then: as §1
The target in another test is BRD4 protein (Homo sapiens (Human), UniProt O60885). Kind of test: Inhibitory action on binding of BRD4 protein and acetylated histone H4 (TR-FRET). To be noted: BRD4-1 (GST) and acetylated histone H4 peptide, 3 hr. Here is the method: The inhibitory action of the compound of the present invention on the binding of BRD4 protein and a ligand thereof (acetylated histone H4) was evaluated by the time-resolved fluorescence resonance energy transfer (TR-FRET) method using EPIgeneous™ Binding Domain Kit A (Cisbio), BRD4-1 (GST) (Reaction Biology Corp) and [Lys(Ac)5/8/12/16]-Histone H4(1-21)-GGK (Biotin) (Eurogentec). In this experiment, (+)-JQ1 (Nature volume 468, pages 1067-1073 (23 Dec. 2010)) known to have an inhibitory activity on the binding of BRD4 protein and acetylated histone H4 therefor was used as a positive control drug. A test compound dissolved in DMSO was diluted with attached Diluent Buffer, added to a 384 well white plate, and BRD4-1 (GST) and [Lys(Ac)5/8/12/16]-Histone H4(1-21)-GGK (Biotin) were further added. Thereafter, Streptavidin-d2 conjugate and Anti-GST-Eu^3+ Cryptate Conjugate were added and the cells were incubated at room temperature for 3 hr. The binding amount of the BRD4 protein and acetylated histone H4 was measured as the fluorescence intensity (excitation: 314 nm/emission: 620 nm and excitation: 314 nm/emission: 665 nm). […] It was calculated from the straight line connecting the degradation rate at two points enclosing the 50% fluorescence intensity and the compound concentration.

Test [11] relates to human fibrosarcoma HT1080 cell. Nature of the test: Cytotoxic action on HT1080 cells (WST-8, 96 hr). The class given is cell-based. The conditions noted are these: HT-1080, HT1080, 96 hr. Here is the method: as §1
Test [12] relates to human T-cell leukemia Jurkat cells. Nature of the test: Cytotoxic action on Jurkat cells (WST-8, 96 hr). The class given is cell-based. Here is the method: as §1
Test [13] relates to human ovarian cancer A2780 cell. Nature of the test: Cytotoxic action on A2780 cells (WST-8, 96 hr). The class given is cell-based. The conditions noted are these: A2780, 96 hr. Here is the method: as §1
Test [14] deals with human liver cancer HLF cell. Kind of test: Cytotoxic action on HLF cells (WST-8, 96 hr). The class given is cell-based. Here is the method: as §1
For test [15], the system named is human cisplatin-resistant ovarian cancer SK-OV-03 cell. Nature of the test: Cytotoxic action on SK-OV-03 cells (WST-8, 96 hr). In kind it is cell-based. To be noted: SK-OV-03, 96 hr. The method, then:
as §1

On to `COC(=O)C[C@@H]1N=C(c2ccc(-c3ccc(C(=O)NCc4ccc(S(=O)(=O)Nc5ccc(C)c6c(C#N)c[nH]c56)cc4)cc3)cc2)c2c(sc(C)c2C)-n2c(C)nnc21` [Example 1, methyl [(6S)-4-{4′-[({4-[(3-cyano-4-methyl-1H-indol-7-yl)sulfamoyl]phenyl}methyl)carbamoyl][1,1′-biphenyl]-4-yl}-2,3,9-trimethyl-6H-thieno[3,2-f][1,2,4]triazolo[4,3-a][1,4]diazepin-6-yl]acetate], for which the IC50 in test [1] stood at 0.16 nM; in test [2], 6.4 nM; in test [3], 27 nM; in test [4], 28 nM; in test [5], 3.6 nM; in test [6], 660 nM. Moreover, the half-inhibitory concentration (IC50) is 27 nM in test [7]; 21 nM in test [8]; 4 nM in test [9]; 5.3 nM in [10]; 29 nM on BRD4 protein; 13 nM in [11]. The IC50 in test [12] stood at 1.3 nM; in [13] it was 0.19 nM; in test [14], 2.9 nM; in test [15], 41 nM.
